By IC50 is commonly meant the concentration that gives 50% inhibition.

Here are results for 3 compounds from ChEMBL document CHEMBL4433263, “Tapping the therapeutic potential of protein tyrosine phosphatase 4A with small molecule inhibitors” (Bioorg Med Chem Lett, 2019).

The target of assay [1] is T1, Tyrosine-protein phosphatase non-receptor type 1 (Homo sapiens, UniProt P18031).
T1 sequence (P18031 whole entry): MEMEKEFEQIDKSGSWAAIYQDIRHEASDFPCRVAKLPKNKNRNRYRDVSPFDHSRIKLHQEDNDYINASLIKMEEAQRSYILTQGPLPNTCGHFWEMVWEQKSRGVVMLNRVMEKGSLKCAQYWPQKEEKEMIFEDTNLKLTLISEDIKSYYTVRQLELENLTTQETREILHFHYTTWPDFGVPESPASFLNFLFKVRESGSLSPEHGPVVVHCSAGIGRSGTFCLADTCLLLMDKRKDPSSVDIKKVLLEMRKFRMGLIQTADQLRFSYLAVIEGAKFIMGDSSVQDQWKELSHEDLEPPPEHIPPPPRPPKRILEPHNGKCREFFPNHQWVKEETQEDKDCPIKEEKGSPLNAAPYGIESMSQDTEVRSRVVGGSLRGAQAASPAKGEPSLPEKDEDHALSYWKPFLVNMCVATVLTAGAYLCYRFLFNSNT
The assay can be described thus: Inhibition of human PTP1B assessed as reduction in hydrolysis using DIFMUP as substrate incubated for 30 mins in presence of DTT by Fluorescence based method.

In assay [2] the target is T2, Protein tyrosine phosphatase type IVA 1 (Homo sapiens, UniProt Q93096).
T2 sequence (Q93096 whole entry): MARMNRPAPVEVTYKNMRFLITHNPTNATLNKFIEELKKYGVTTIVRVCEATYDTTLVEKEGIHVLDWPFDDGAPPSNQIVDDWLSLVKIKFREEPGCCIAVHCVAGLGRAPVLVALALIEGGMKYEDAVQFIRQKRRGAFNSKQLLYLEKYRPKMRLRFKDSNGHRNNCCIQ
Kind of assay: Inhibition of PTP4A1 (unknown origin).

Assay [3] concerns the target T3, Protein tyrosine phosphatase type IVA 2 (Homo sapiens, UniProt Q12974).
T3 sequence (Q12974 whole entry): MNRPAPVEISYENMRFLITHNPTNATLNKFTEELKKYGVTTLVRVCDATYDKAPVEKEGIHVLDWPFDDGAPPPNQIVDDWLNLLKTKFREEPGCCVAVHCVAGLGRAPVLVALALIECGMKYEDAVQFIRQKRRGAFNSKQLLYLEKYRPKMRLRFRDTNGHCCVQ
Kind of assay: Inhibition of PTP4A2 (unknown origin).

In assay [4] the target is Protein tyrosine phosphatase type IVA 3 (Homo sapiens, UniProt O75365). The assay can be described thus: Inhibition of PTP4A3 (unknown origin).
Sequence of Protein tyrosine phosphatase type IVA 3 (O75365 whole entry): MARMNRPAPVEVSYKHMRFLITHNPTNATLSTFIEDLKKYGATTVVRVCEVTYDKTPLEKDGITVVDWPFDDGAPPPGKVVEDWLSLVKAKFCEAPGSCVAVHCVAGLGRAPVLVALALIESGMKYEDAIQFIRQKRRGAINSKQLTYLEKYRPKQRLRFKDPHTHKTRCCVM

Take `N=C1C(=O)NC(=O)c2cc(-c3ccccc3)sc21`: the IC50 in assay [1] was greater than 80 µM.

Take `Cc1cc2c(cc1C)CN(c1cccc(C(=O)N/N=C/c3ccc(C(=O)O)cc3)c1)C2`: in assay [2], the IC50 was greater than 20000 nM. For the compound `N=C(N)c1ccc(OCCCCCOc2ccc(C(=N)N)cc2)cc1` [PENTAMIDINE], the IC50 in assay [3], in assay [4] and in assay [2] was 300 nM each time.
